From patent publication US9512120B2, “Microbicidally active imidazopyridine derivatives” (Syngenta Participations AG, priority 2013, dated 2016) come the findings set out here.

Data set [1] deals with Mycosphaerella arachidis (Cercospora arachidicola). The experiment in a line: Mycosphaerella arachidis (Cercospora arachidicola) / liquid culture (early leaf spot). The conditions noted are these: PDB, 24° C., 4-5 days after application, read-out: control of Mycosphaerella arachidis (inhibition of growth, photometric). Format: cell-based. Summed up: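 Conidia suspended in potato dextrose broth and added to test compound from DMSO solution at 200 ppm. Incubated at 24 °C; growth inhibition read photometrically 4-5 days after application.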

The test system of data set [2] is Glomerella lagenarium (Colletotrichum lagenarium). The experiment in a line: Glomerella lagenarium (Colletotrichum lagenarium) / liquid culture (anthracnose). Format: cell-based. The note with it: Colletotrichum orbiculare, PDB, 24° C., 3-4 days after application, read-out: control of Glomerella lagenarium (inhibition of growth, photometric). The procedure, abridged:
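Cryopreserved conidia suspended in potato dextrose broth were added to compound in DMSO applied at 200 ppm. Plates incubated at 24° C; growth inhibition read photometrically 3-4 days after application.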

The test system of a further data set is Fusarium culmorum. The experiment in a line: microbe, parasite or virus in culture. The note with it: read-out: control of Fusarium culmorum (inhibition of growth, photometric). Format: cell-based.
Data set [3] has as its system Monographella nivalis (Microdochium nivale). Put plainly: Monographella nivalis (Microdochium nivale) / liquid culture (foot rot cereals). Format: cell-based. The note with it: PDB, 24° C., 4-5 days after application, read-out: control of Monographella nivalis (inhibition of growth, photometric). Summed up:
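Cryostored conidia in potato dextrose broth were added to test compound dispensed from DMSO at 200 ppm. Plates were kept at 24° C, and growth inhibition was read photometrically 4-5 days after application.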

For data set [4], the system named is Mycosphaerella graminicola (Septoria tritici). The experiment in a line: Mycosphaerella graminicola (Septoria tritici) / liquid culture (Septoria blotch). Format: cell-based. The conditions noted are these: Zymoseptoria tritici, PDB, 24° C., 4-5 days after application, read-out: control of Mycosphaerella graminicola (inhibition of growth, photometric). Summed up: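 Cryo-stored conidia in potato dextrose broth were added to compound in DMSO at 200 ppm in microtiter plates. Plates were incubated at 24 °C and growth inhibition was measured photometrically 4–5 days after application.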

The subject of another data set is Pyrenophora teres. Put plainly: Pyrenophora teres / barley / leaf disc preventative (net blotch). Format: in vivo. The conditions noted are these: foliar, barley leaf segments cv Hasso, inoculated two days after application, assessed 5-7 days after application, read-out: control of Pyrenophora teres (disease control compared to untreated). Summed up:
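Barley cv Hasso leaf segments on agar sprayed with compound at 200 ppm, inoculated with spores two days later. Kept at 20 °C, 65% RH, 12/12 h light; disease control versus untreated scored 5-7 days after application.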

In data set [5] the test system is Botryotinia fuckeliana (Botrytis cinerea). The experiment in a line: Botryotinia fuckeliana (Botrytis cinerea) / liquid culture (gray mould). Format: cell-based. The conditions noted are these: Vogels broth, 24° C., 3-4 days after application, read-out: control of Botryotinia fuckeliana (inhibition of growth, photometric). The procedure, abridged: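 Botrytis cinerea conidia in Vogels broth were added to test compound applied from DMSO at 200 ppm. Incubation at 24 °C; growth inhibition read photometrically 3-4 days after application.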

A further data set deals with Sclerotinia sclerotiorum. The experiment in a line: Sclerotinia sclerotiorum liquid culture (cottony rot / white mold). Format: cell-based. The note with it: PDB, 24° C., 3-4 days after application, read-out: control of Sclerotinia sclerotiorum (inhibition of growth, photometric). The procedure, abridged: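 Mycelia fragments of Sclerotinia sclerotiorum in potato dextrose broth were added to compound in DMSO. Cultures incubated at 24° C; growth inhibition determined photometrically 3-4 days after application.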

The subject of a further data set is Gaeumannomyces graminis. The experiment in a line: Gaeumannomyces graminis / liquid culture (take-all of cereals). The conditions noted are these: PDB, 24° C., 4-5 days after application, read-out: control of Gaeumannomyces graminis (inhibition of growth, photometric). Format: cell-based. The procedure, abridged: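 Mycelial fragments in potato dextrose broth were exposed to compound from DMSO at 200 ppm in microtiter plates. Incubation at 24 °C; growth inhibition read photometrically 4-5 days after application.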

In data set [6] the test system is Puccinia recondita f. sp. Tritici. The experiment in a line: Puccinia recondita f. sp. tritici / wheat / leaf disc preventative (brown rust). Format: in vivo. The conditions noted are these: foliar, wheat leaf segments cv Kanzler, inoculated 1 day after application, assessed 7-9 days after application, read-out: control of Puccinia recondita f. sp. Tritici (percent disease control compared to untreated). Summed up:
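Leaf segments of wheat cv Kanzler on agar were sprayed with formulated compound at 200 ppm and inoculated with spores 1 day later. Incubation was at 19° C, 75% relative humidity and 12/12 h light/dark. Activity was scored 7-9 days after application as percent disease control versus untreated.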

Data set [7] deals with Thanatephorus cucumeris (Rhizoctonia solani). The experiment in a line: Thanatephorus cucumeris (Rhizoctonia solani) / liquid culture (foot rot, damping-off). Format: cell-based. The conditions noted are these: PDB, 24° C., 3-4 days after application, read-out: control of Thanatephorus cucumeris (inhibition of growth, photometric). Summed up: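 Mycelial fragments in potato dextrose broth exposed to test compounds at 200 ppm (from DMSO solution), incubated at 24° C. Growth inhibition read photometrically 3-4 days after application.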

In data set [8] the test system is Phaeosphaeria nodorum (Septoria nodorum). Put plainly: Phaeosphaeria nodorum (Septoria nodorum) / wheat / leaf disc preventative (glume blotch). Format: in vivo. The conditions noted are these: Parastagonospora nodorum, foliar, wheat leaf segments cv Kanzler, inoculated 2 days after application, assessed 5-7 days after application, read-out: control of Phaeosphaeria nodorum (percent disease control compared to untreated). Summed up: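 Wheat leaf segments (cv Kanzler) on agar sprayed with compound at 200 ppm, inoculated with spores 2 days later. Incubated at 20° C., 75% relative humidity, 12/12 h light/dark; percent disease control versus untreated scored 5-7 days after application.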

For a further data set, the system named is Pythium ultimum. Put plainly: Pythium ultimum / liquid culture (seedling damping off). The note with it: Globisporangium ultimum, potato dextrose broth, 24° C., 2-3 days after application, read-out: control of Pythium ultimum (inhibition of growth, photometric). Format: cell-based. The procedure: Pythium ultimum/Liquid Culture (Seedling Damping Off) Mycelia fragments and oospores of a newly grown liquid culture of the fungus were directly mixed into nutrient broth (potato dextrose broth). After placing a DMSO solution of test compound into a 96-well format microtiter plate at an application rate of 200 ppm, the nutrient broth containing the fungal mycelia/spore mixture was added. The test plates were incubated at 24° C. and the inhibition of growth was determined photometrically 2-3 days after application.

Data set [9] relates to Blumeria graminis f. Sp. Tritici (Erysiphe graminis f. Sp. Tritici). The experiment in a line: Blumeria graminis f. sp. tritici / wheat / leaf disc preventative (powdery mildew on wheat). Format: in vivo. The conditions noted are these: foliar, wheat leaf segments cv. Kanzler, inoculated 1 day after application, assessed 6-8 days after application, read-out: control of Blumeria graminis (percent disease control compared to untreated). The procedure: Blumeria graminis f. Sp. Tritici (Erysiphe graminis f. Sp. Tritici)/Wheat/Leaf Disc Preventative (Powdery Mildew on Wheat):
Wheat leaf segments cv. Kanzler were placed on agar in a 24-well plate and sprayed with the formulated test compound diluted in water at an application rate of 200 ppm. The leaf disks were inoculated by shaking powdery mildew infected plants above the test plates 1 day after application. The inoculated leaf disks were incubated at 20° C. and 60% relative humidity under a light regime of 24 h darkness followed by 12 h/12 h (dark/light) in a climate chamber and the activity of a compound was assessed as percent disease control compared to untreated when an appropriate level of disease damage appears on untreated check leaf segments (6-8 days after application). The following compounds gave at least 80% control of Blumeria graminis at 200 ppm when compared to untreated control leaf disks under the same conditions, which show extensive disease development: 2, 13, 23, 50, 59, 61, 67, 75, 85, 86, 89, 90, 93, 102, 103, 107, 134, 136, 137, 138, 139, 141, 145, 151, 153, 154, 163, 173, 174

Each structure is given as a SMILES string.

Regarding `CCn1c(-n2ncnc2N)nc2cncc(Br)c21` [Compound 15, 2-(7-bromo-1-ethylimidazo[4,5-c]pyridin-2-yl)-1,2,4-triazol-3-amine], the melting point lay in the range of 231 to 232 °C. For the same compound, the inhibition at 20 ppm in [1] was at least 80%. Also, the inhibition at 20 ppm in [2] is at least 80%. Besides, the inhibition at 20 ppm in the data set on Fusarium culmorum was at least 80%. The inhibition at 20 ppm in [3] is at least 80%. Moreover, in data set [4], the inhibition at 20 ppm was at least 80%. The pest or weed control at 200 ppm with Pyrenophora teres is at least 80%. The inhibition at 20 ppm in data set [5] is at least 80%. In the data set on Sclerotinia sclerotiorum, the inhibition at 20 ppm was at least 80%. For the same compound, the inhibition at 20 ppm in the data set with Gaeumannomyces graminis was at least 80%. Moreover, in data set [6], the pest or weed control at 200 ppm was at least 80%. Moreover, the inhibition at 20 ppm in data set [7] is at least 80%. In [8], the pest or weed control at 200 ppm was at least 80%.

With `CCn1c(-n2ncnc2N)nc2cncc(-c3ccc(OC)nc3)c21` [Compound 59, 2-[1-ethyl-7-(6-methoxypyridin-3-yl)imidazo[4,5-c]pyridin-2-yl]-1,2,4-triazol-3-amine], the inhibition at 20 ppm (in [2]; in data set [4]; with Pythium ultimum; in data set [5]; with Gaeumannomyces graminis; in data set [7]) was at least 80% in each case. Further, the pest or weed control at 200 ppm (in the data set with Pyrenophora teres; in data set [6]; in [8]; in [9]) was at least 80% in each case.

In the case of `C=C(OCC)c1cncc2nc(-n3ncnc3N)n(CC)c12` [Compound 74, 2-[7-(1-ethoxyethenyl)-1-ethylimidazo[4,5-c]pyridin-2-yl]-1,2,4-triazol-3-amine], the melting point lay within 193 to 195 °C. Further, in data set [1], the inhibition at 20 ppm is at least 80%. In [2], the inhibition at 20 ppm is at least 80%. In addition, the inhibition at 20 ppm in the data set with Fusarium culmorum was at least 80%. In data set [3], the inhibition at 20 ppm is at least 80%. Further, the inhibition at 20 ppm in data set [4] is at least 80%. For the same compound, in the data set on Pyrenophora teres, the pest or weed control at 200 ppm is at least 80%. Further, the inhibition at 20 ppm in data set [5] was at least 80%. In addition, the inhibition at 20 ppm in the data set on Sclerotinia sclerotiorum is at least 80%. Besides, the inhibition at 20 ppm in the data set with Gaeumannomyces graminis is at least 80%. Further, the pest or weed control at 200 ppm in data set [6] is at least 80%. Moreover, the inhibition at 20 ppm in [7] was at least 80%. In addition, the pest or weed control at 200 ppm in data set [8] is at least 80%.

With `CCn1c(-n2ncnc2N)nc2cncc(-c3ccccc3C#N)c21` [Compound 85, 2-[2-(5-amino-1,2,4-triazol-1-yl)-1-ethylimidazo[4,5-c]pyridin-7-yl]benzonitrile], the inhibition at 20 ppm (in [2]; in data set [4]; with Pythium ultimum; in [5]; with Gaeumannomyces graminis; in [7]) was at least 80% each time. Besides, the pest or weed control at 200 ppm (with Pyrenophora teres; in [6]; in [9]) was at least 80% each time.

On to `CCn1c(-n2ncnc2N)nc2cncc(-c3cc(Cl)ccc3Cl)c21` [Compound 88, 2-[7-(2,5-dichlorophenyl)-1-ethylimidazo[4,5-c]pyridin-2-yl]-1,2,4-triazol-3-amine], for which the inhibition at 20 ppm (in [2]; in the data set with Fusarium culmorum; in [3]; in data set [4]; in [5]; in the data set on Sclerotinia sclerotiorum) was at least 80% in each case. Besides, the inhibition at 20 ppm (with Gaeumannomyces graminis; in data set [7]) was at least 80% in each case. In addition, the pest or weed control at 200 ppm (with Pyrenophora teres; in [6]; in data set [8]) was at least 80% in each case.

In the case of `CCn1c(-n2ncnc2N)nc2cncc(-c3ccc(Cl)c(Cl)c3F)c21` [Compound 100, 2-[7-(3,4-dichloro-2-fluorophenyl)-1-ethylimidazo[4,5-c]pyridin-2-yl]-1,2,4-triazol-3-amine], the inhibition at 20 ppm (in data set [2]; in the data set on Fusarium culmorum; in data set [3]; in data set [4]; in [5]; with Sclerotinia sclerotiorum) was at least 80% in each case. For the same compound, the inhibition at 20 ppm (in the data set on Gaeumannomyces graminis; in [7]) was at least 80% in each case. The pest or weed control at 200 ppm (in the data set on Pyrenophora teres; in data set [6]; in data set [8]) was at least 80% each time.

On to `CCCCCCO/N=C(/C)c1cncc2nc(-n3ncnc3N)n(CC)c12` [Compound 147], for which the inhibition at 20 ppm (in data set [1]; in data set [2]; in the data set on Fusarium culmorum; in data set [3]; in [4]; in [5]) was at least 80% each time. Moreover, the inhibition at 20 ppm (with Sclerotinia sclerotiorum; in data set [7]) was at least 80% each time. In addition, the pest or weed control at 200 ppm (in the data set with Pyrenophora teres; in data set [6]; in data set [8]) was at least 80% throughout.

Broadly, the inhibition is the percentage by which the read-out fell short of the control. Broadly, the melting point is the temperature, or range, at which the solid turns liquid.
